Experimental data published in patent US7648993B2, “Methods of treating disorders with Group I mGluR antagonists” (Brown University, priority 2001, dated 2010).

Assays:
[1] = tested on: CA1 neurons in hippocampal slices; test: NMDA-evoked currents in CA1 neurons of hippocampal slices; type: cell-based, Long Evans rats; conditions: DHPG 100 μM, 5 min; 50-60 min after treatment
Experimental: As an additional test for an mGluR-induced loss of NMDAR function, we examined the effects of 100 μM DHPG (5 min) on currents evoked by NMDA applied near the proximal portion of the primary apical dendrite (FIG. 9B). Significant depression of NMDAR currents occurred (percent baseline at 50-60 min after DHPG treatment, DHPG, 61.1±12.0, n=7; control, 97.3±9.4; n=7; p<0.05); however, the time course of this change was much slower than that observed for synaptically evoked EPSCs. […] The early LTD of EPSCs could be accounted for by a presynaptic mechanism or by the rapid dispersal of synaptic NMDARs (without immediate internalization). […] Regardless of the early consequences, however, the parallel depression of NMDAR EPSCs and NMDA-evoked responses 60 minutes after DHPG treatment is consistent with an eventual reduction in surface NMDAR expression during mGluR-LTD.
Hippocampal slices were prepared from P21-30 Long Evans rats (Charles River, Cambridge, Mass.) as described previously^13,14. Slices recovered for 1-2 h at room temperature in artificial cerebrospinal fluid (ACSF) containing 124 mM NaCl, 5 mM KCl, 1.25 mM NaH2PO4, 26 mM NaHCO3, 1 mM MgCl2, 2 mM CaCl2, 10 mM dextrose, saturated with 95% O2, 5% CO2. […]
Synaptically evoked-NMDAR-mediated EPSCs were recorded from area CA1 as described previously for visual cortex^20. […]

[2] = tested on: hippocampal slices from mGluR5 knockout mice; test: DHPG-LTD of field potentials in hippocampal slices from mGluR5 knockout mice and wild-type littermates; type: cell-based
Experimental: All animals were used in accordance with procedures approved by the Brown University Institutional Animal Care and Use Committee. Hippocampal slices were prepared from postnatal day 21-30 (P21-30) Long Evans rats (Charles River, Cambridge, Mass.) and mGluR5 knockout mice (Lu et al. 1997) as described previously (Huber et al. 2000). For most experiments, CA3 was removed immediately after sectioning. Slices recovered for 1-2 h at room temperature (rats) or at 30° C. (mice) in artificial cerebrospinal fluid (ACSF) containing (in mM) 124 NaCl, 5 KCl, 1.25 NaH2PO4, 26 NaHCO3, 1 MgCl2, 2 CaCl2, and 10 dextrose, saturated with 95% O2-5% CO2. For recording, slices were placed in a submersion recording chamber and perfused with 30° C. ACSF at a rate of 2 ml/min.
Baseline responses were collected every 10-30 s using a stimulation intensity (10-30 μA; 0.2 ms) yielding 50-60% of the maximal response. Experiments in which there was a>5% drift in the response magnitude during the 20-min baseline period before DHPG or LFS were excluded from further analysis. All experiments with mGluR5 KO mice used wildtype littermates as controls and were performed blind to the genotype, later determined by Therion (Troy, N.Y.). LFS consisted of 900 pulses at 1 Hz. PP-LFS consisted of 900 pairs of stimuli (50-ms interstimulus interval) delivered at 1 Hz. […]
The group data were analyzed as follows: 1) the initial slopes of the FPs and excitatory postsynaptic potentials (EPSPs), or the amplitude of the excitatory postsynaptic currents (EPSCs), for each experiment were expressed as percentages of the preconditioning or DHPG baseline average, 2) the time scale in each experiment was converted to time from the onset of conditioning or DHPG, and 3) the time-matched, normalized data were averaged across experiments and expressed in the text and figures as the means ±SE. Significant differences between groups were determined using an independent t-test or ANOVA performed on a 5-min average taken 1 h after LFS or DHPG application.

Structure (SMILES): NC(C(=O)O)c1cc(O)cc(O)c1 (racemic) [DHPG, (RS)-3,5-dihydroxyphenylglycine]
- NMDA-evoked currents, percent baseline [1]: 61.1±12.0 percent baseline
- DHPG-LTD, FP % of baseline, mGluR5 heterozygous mutants ([2]; 1 h after DHPG, mGluR5 +/−): 84±4%
- DHPG-LTD, FP % of baseline, wild-type littermate controls ([2]; 1 h after DHPG, wild type): 77±2%
- DHPG-LTD, FP % of baseline, mGluR5 homozygous mutants ([2]; measured 1 h after DHPG application, mGluR5 −/−): 98±3%
